US4315022A, “Terminal amino prostaglandin analogues” (Beecham Group Limited, priority 1979, dated 1982)

What was measured:
[1] = system: 5-hydroxytryptamine induced bronchoconstriction; assay: Inhibition of 5-hydroxytryptamine induced bronchoconstriction in anaesthetised, artificially respired guinea pig (Konzett-Rossler preparation); type: in vivo; conditions: Cavia porcellus, intravenous
Protocol: 1. The compounds were examined for their ability to inhibit 5-hydroxytryptamine induced bronchoconstriction in the anaesthetised, artificially respired guinea pig (Konzett-Rossler preparation). The compounds were administered intravenously.

[2] = system: bronchoconstriction induced by an histamine aerosol; assay: Protection of conscious guinea pigs against bronchoconstriction induced by histamine aerosol (Herxheimer test); type: in vivo, guinea pig; conditions: 10 μg/ml, 2 minutes after dosing
Protocol: 2. The compounds were examined for their ability to protect conscious guinea pigs against bronchoconstriction induced by an histamine aerosol (Herxheimer test). In these experiments the compounds were administered by aerosol.

SMILES | ED50 [1] | increase in pre-convulsive coughing time [2]
CCCCCCC(C)(O)CCN1C(=O)N(C)C(=O)C1CCCCCCCN(CCC(=O)OC)CCC(=O)OC (stereo not drawn) [Compound 6] | 0.079 mg/kg | –
CCCCCCC(C)(O)CCN1C(=O)N(C)C(=O)C1CCCCCCCNCCC(=O)OC (stereo not drawn) [Compound 5, 1-(3'-hydroxy-3'-methyl-n-nonyl)-3-methyl-5-(7"-(2'''-methoxycarbonylethyl)amino-n-heptyl) hydantoin] | 0.095 mg/kg | –
CCCCCCC(C)(O)CCN1C(=O)N(C)C(=O)C1CCCCCCCN(CC(=O)OC)CC(=O)OC (stereo not drawn) [Compound 10, 1-(3'-hydroxy-3'-methyl-n-nonyl)-3-methyl-5-{7'-[N,N-bis(methoxycarbonylmethyl)amino]-n-heptyl}hydantoin] | 0.0805 mg/kg | –
CCCCCCC(C)(O)CCN1C(=O)N(C)C(=O)C1CCCCCCC(N)=O (stereo not drawn) [Compound 3, 1-(3'-hydroxy-3'-methyl-n-nonyl)-3-methyl-5-(6"-amidoyl-n-hexyl) hydantoin] | 0.108 mg/kg | 107%
CCCCCCC(C)(O)CCN1C(=O)N(C)C(=O)C1CCCCCCCN (stereo not drawn) [Compound 1, 1-(3'-hydroxy-3'-methyl-n-nonyl)-3-methyl-5-(7"-amino-n-heptyl)-hydantoin] | 0.0023 mg/kg | –
CCCCCCC(C)(O)CCN1C(=O)N(C)C(=O)C1CCCCCCC(N)=NO (stereo not drawn) [Compound 2, 1-(3'-hydroxy-3'-methyl-n-nonyl)-3-methyl-5-(6"-amidoxyl-n-hexyl)-hydantoin] | 0.032 mg/kg | 47.5%
CCCCCCC(C)(O)CCN1C(=O)N(C)C(=O)C1CCCCCCCNCC(=O)OC (stereo not drawn) [Compound 9, 1-(3'-hydroxy-3'-methyl-n-nonyl)-3-methyl-5-5-[7'-(N-methoxycarbonylmethyl)amino-n-heptyl]-hydantoin] | 0.066 mg/kg | –
